Reference: patent US12082918B2, “Preparation for magnetic resonance diagnostics for oncological diseases, comprising deuterated 2-amino-2-methylpropionic acid and/or 2-(N-methylamino)-2-methylpropionic acid, and diagnostic method using said preparation” (SOLVEX LIMITED LIABILITY COMPANY, priority 2017, dated 2024)

Tests used:
[1] = test system: carcinoma of the breast 4T1; experiment: 2H MRI visualisation of 4T1 breast carcinoma in mice in vivo; design: species or system mice Balb/c
Description: (§1) In the examples below, the MRI scanner Bruker BioSpec BC70/30 USR with the constant field of 7.05 T, equipped with a surface transmitting-and-receiving coil with a diameter of 3 cm and a scan depth of ca. 1 cm was used.
(§2) To register deuterium image the FLASH (Fast low angle shot) pulse sequence was used.
(§3) For experiments with the broadband excitation the following settings were used: the excitation frequency was determined by ^2H NMR spectrum and was sfo1≈46.1745 MHz, a rectangular excitation pulse with a width of 1300 Hz and a power of 36 dB, the flip angle FA=30°, the time TR=11.8 MS, echo time TE=4.4 msec, a scan area of 10 cm×10 cm, scan matrix, 50×50, slice thickness 3 cm, bandwidth of 12500 Hz, total scan time 10 minutes (1030 averages).
For experiments with selective excitation the following settings were used: excitation frequency sfo1=46.1745 MHz, a rectangular excitation pulse with a width of 130 Hz and a power of 48 dB, the flip angle FA=30°, the repetition time TR=25 MS, echo time TE=10 MS, a scanning area of 10 cm×10 cm, scan matrix 50×50, slice thickness 3 cm, bandwidth of 25,000 Hz, total scan time 10 minutes.
In this example, experiments were conducted on mice Balb/c inoculated with carcinoma of the breast 4T1 (injection of 5×10^5 cells/60 μl under the left front paw for 10 days before experiment) and in healthy Balb/c mice.
An animal no. 1-5 weighing 20 g was injected intraperitoneally with a solution of 20 mg of 2-amino-2-(CD3)-3,3,3-D3-propionic acid in 0.5 ml of a saline solution. An animal no. […] weighing 20 g was injected intraperitoneally with a solution of 10 mg (mouse no. 4) or 5 mg (mouse no. 5) 2-amino-2-(CD3)-3,3,3-D3-propionic acid in 0.25 ml of a saline solution. After injection, the animal was kept in a separate cage for a specified time (no. 1 with the tumor and no. 2 without the tumor: 40 min; no. 3 with the tumor: 115 min; no. 4 with the tumor: 20 and 360 min; no. 5 and no. 6 with the tumor: 30 min). To register the MR images and spectra an animal was immobilized with isoflurane. The surface transmitting-and-receiving coil was fixed on the body of the mouse on the dorsal side sequentially in two positions (thoracic, kidneys). The FIGS. 3-7 show ^2H MR images obtained with the use of the broadband excitation of the deuterium nuclei.

C6 glioma = experiment: 2H MRI visualisation of glioma C6 in rats in vivo; design: species or system Wistar rats; conditions: 4 hours after 150 mg i.p.
Description: as §1, §2, §3
In this example, experiments were conducted on Wistar rats inoculated with C6 glioma and in healthy Wistar rats.
An animal with the weight of 210 g was injected intraperitoneally a solution of 150 mg of 2-amino-2-(CD3)-3,3,3-D3-propionic acid in 1.5 ml of a saline solution. After injection, the animal was kept in a separate cage with free access to food and water. To register the MR images and spectra an animal was immobilized with isoflurane. The surface transmitting-and-receiving coil was fixed over the head of the rat.

[2] = test system: carcinoma of the breast 4T1; experiment: 2H MRI visualisation of 4T1 breast carcinoma in mice in vivo; design: species or system mice Balb/c; remark: listed apart in the source

With `[2H]C([2H])([2H])C(N)(C(=O)O)C([2H])([2H])[2H]` [2-amino-2-(CD3)-3,3,3-D3-propionic acid] the “localization of the deuterium signal (2H MRI)” value (shortened to “localization”) ([1]; control mouse no. 2 without the tumor, 40 min after 20 mg i.p.) was “localized in the region corresponding to the liver”, the “allowable time range between administration and detection of deuterium” value ([1]; mice with 4T1 tumor, 20 mg i.p., FIGS. 3, 5, 7 and 8) was 20 to 360 min and the “signal/noise ratio in the kidneys” value ([1]; mouse no. 1, 40 min after 20 mg i.p., broadband excitation) was “approximately 25”. The “localization” value ([1]; mouse no. 1 with tumor, 40 min after 20 mg i.p.) was “localized in the region corresponding to the tumor”, the “signal/noise ratio in the region of the tumor” value ([1]; mouse no. 1 with tumor, 40 min after 20 mg i.p., broadband excitation) was “approximately 6” and the “signal/noise ratio in the region of the tumor” value ([1]; mouse no. 1 with tumor, 40 min after 20 mg i.p., selective excitation) was “about 4”. The “localization” value ([1]; mouse no. 3 with tumor, 115 min after 20 mg i.p.) was “localized in the region corresponding to the tumor and in the area corresponding to the liver”, the “visibility of excised tumor on deuterium MR image” value ([1]; tumors excised from mouse no. 3, 150 min after injection of 20 mg) was “clearly visible on deuterium MR image” and the “localization” value (C6 glioma; rat with C6 glioma) was “localized in the region corresponding to the tumor”. For the same molecule, the “localization” value (C6 glioma; rats without tumors) was “does not show a clear localization”, the “localization” value ([2]; mouse no. 4 with tumor, 20 min after 20 mg i.p.) was “localized in the region corresponding to the most recently developed and actively growing parts of the tumor, and also in the area corresponding to the liver” and the “localization” value ([2]; mouse no. 4 with tumor, 360 min after 20 mg i.p.) was “localized in the region corresponding to the most recently developed and actively growing parts of the tumor”. The “localization” value ([2]; mouse no. 5 with tumor, 30 min after 10 mg i.p.) was “localized in the region corresponding to individual parts of the tumor” and the “localization” value ([2]; mouse no. 6 with tumor, 30 min after 5 mg i.p.) was “localized in the region corresponding to individual parts of the tumor”.
